Laboratory results reported in patent US20230227484A1, “PYRIMIDINE COMPOUND AS AXL INHIBITOR” (NANJING CHIA TAI TIANQING PHARMACEUTICAL CO., LTD., priority 2020, published 2023).

Columns and labels:
[1] = target: T1, AXL kinase (Homo sapiens, UniProt P30530); assay: Inhibitory activity of compound against AXL kinase (HTRF KinEASE); type: biochemical; settings: AXL enzyme (Carna, 08-107), ATP 15 μM; "<" means below detection limit of the test
T1 construct: purchased Carna 08-107
T1 sequence (P30530 473-894 limits assumed): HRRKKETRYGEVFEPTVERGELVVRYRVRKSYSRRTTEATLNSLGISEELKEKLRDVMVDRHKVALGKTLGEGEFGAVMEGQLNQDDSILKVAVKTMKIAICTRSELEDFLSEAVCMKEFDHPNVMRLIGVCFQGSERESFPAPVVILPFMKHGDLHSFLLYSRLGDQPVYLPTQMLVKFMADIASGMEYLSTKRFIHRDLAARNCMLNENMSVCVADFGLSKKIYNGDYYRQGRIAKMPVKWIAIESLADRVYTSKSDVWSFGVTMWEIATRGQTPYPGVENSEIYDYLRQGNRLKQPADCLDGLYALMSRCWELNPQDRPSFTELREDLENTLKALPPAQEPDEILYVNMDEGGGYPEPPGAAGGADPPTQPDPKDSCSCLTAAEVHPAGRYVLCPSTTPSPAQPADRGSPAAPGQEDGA
Method in brief: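 AXL enzyme (final 0.016 ng/uL) was preincubated with compound (8 concentrations from 1 μM, ½ log steps) for 15 min at room temperature, then reacted with TK Substrate 3-biotin (final 1) and ATP (final 15 μM) for 45 min at 25° C. Phosphorylation was read by HTRF (TK antibody-cryptate, streptavidin-XL665, 1 h); IC50 from variable-slope dose-response fit.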

[2] = tested on: human acute monocytic leukemia cell MV-4-11 xenograft tumor; assay: In-vivo efficacy of compound for MV4-11 xenograft tumor model of nude mouse; settings: MV4-11, po, once a day, end of experiment, MV-4-11 xenograft nude mice; for response vs control in vivo at 5 mg/kg/day / inhibition in vivo at 5 mg/kg/day: intragastric 5 mg/kg/d
Protocol: Inhibitory effects of a compound and a positive drug on the in-vivo tumor growth of a xenograft tumor model of a nude mouse on human acute monocytic leukemia cell MV-4-11 are tested.
MV-4-11 cells in a logarithmic growth phase are harvested, resuspended after cell counting, and adjusted in cell concentration to 7.0×10^7 cells/mL. The resuspended solution is injected into the right armpit of the nude mice subcutaneously. Each animal is inoculated with 200 μL (14×10^6 cells) of the suspended solution to establish a MV-4-11 xenograft tumor model. Afer the tumor volume reaches 100-300 mm^3, tumor-bearing mice in good health and similar tumor volume are selected.
The compound and the positive drug are vortexed with a suitable solvent and then ultrasonicated to completely dissolve the compound. Then, an appropriate volume of citric acid buffer is slowly added, and the mixed solution is vortexed to make the solution mixed uniformly to obtain administrative formulations having concentrations of 0.1, 0.5, and 1 mg-mL^−1.
Solvent control group: PEG400 & citric acid buffer (20:80, v:v).
The modeled mice are randomly divided into groups (n=6), and administrated with the relevant compounds and positive drugs on the day of grouping. After 21 days or after the tumor volume of the solvent control group reaches 2000 mm^3, the experiment is terminated (whichever reaches the index first), and the administration volume is 10 mL-kg^−1. Both the compound and the positive drug are administered by gavage, once a day. After the experiment starts, the tumor diameter and animal body weight are measured twice a week, and the tumor volume is calculated.
The tumor volume(TV) calculation formula is: tumor volume(mm^3)=l×w^2/2,
The calculation formula of relative tumor volume(RTV) is: RTV=TVt/TVinitial
The calculation formula of relative tumor proliferation rate (% T/C) is: % T/C=100%×(RTVT/RTVC)

[3] = read-out: Relative tumor proliferation rate (% T/C)
[4] = read-out: Tumor growth inhibition rate (TGI %)

Compound | IC50 [1] [nM] | response vs control in vivo at 5 mg/kg/day [2, 3] [%] | inhibition in vivo at 5 mg/kg/day [2, 4] [%] | response vs control in vivo at 1 mg/kg/day ([2]; intragastric 1 mg/kg/d, read-out: Relative tumor proliferation rate (% T/C)) [%] | inhibition in vivo at 1 mg/kg/day ([2]; intragastric 1 mg/kg/d, read-out: Tumor growth inhibition rate (TGI %)) [%]
CP(C)(=O)c1ccccc1Nc1nc(Nc2ccc3c(c2)CC[C@@H](N2CCCC2)CC3)ncc1Cl [Example 10, (S)-(2-((5-chloro-2-((7-(pyrrolidin-1-yl)-6,7,8,9-tetrahydro-5H-benzo[7]annulen-2-yl)amino)pyrimidin-4-yl)amino)phenyl)dimethyl phosphine oxide] | 2.35 | 3.7 | 106 |  | 
CP(C)(=O)c1c(Nc2nc(Nc3ccc4c(c3)CC[C@@H](N3CCCC3)CC4)ncc2Cl)ccc2nccnc12 [Example 47, (S)-(6-((5-chloro-2-((7-(pyrrolidin-1-yl)-6,7,8,9-tetrahydro-5H-benzo[7]annulen-2-yl)amino)pyrimidin-4-yl)amino)quinoxalin-5-yl)dimethyl phosphine oxide] | 1.72 | 15 | 94 |  | 
COCc1ccc(Nc2nc(Nc3ccc4c(c3)CC[C@@H](N3CCCC3)CC4)ncc2Cl)c(P(C)(C)=O)c1 [Example 115, (S)-(2-((5-chloro-2-((7-(pyrrolidin-1-yl)-6,7,8,9-tetrahydro-5H-benzo[7]annulen-2-yl)amino)pyrimidin-4-yl)amino)-5-(methoxymethyl)phenyl)dimethylphosphine oxide] | 4.89 | 23 | 85 |  | 

Continued by falling IC50 [1], values first:

IC50 [1] [nM] | Compound | response vs control in vivo at 5 mg/kg/day [2, 3] [%] | inhibition in vivo at 5 mg/kg/day [2, 4] [%] | response vs control in vivo at 1 mg/kg/day ([2]; intragastric 1 mg/kg/d, read-out: Relative tumor proliferation rate (% T/C)) [%] | inhibition in vivo at 1 mg/kg/day ([2]; intragastric 1 mg/kg/d, read-out: Tumor growth inhibition rate (TGI %)) [%]
1.86 | Cc1ccc(Nc2nc(Nc3ccc4c(c3)CC[C@@H](N3CCCC3)CC4)ncc2Cl)c(P(C)(C)=O)c1 [Example 53, (S)-(2-((5-chloro-2-((7-(pyrrolidin-1-yl)-6,7,8,9-tetrahydro-5H-benzo[7]annulen-2-yl)amino)pyrimidin-4-yl)amino)-5-methylphenyl) dimethyl phosphine oxide] | 31 | 79 |  | 
0.11 | CNC(=O)c1cc(F)ccc1Nc1nc(Nc2ccc3c(c2)CC[C@@H](N2CCCC2)CC3)ncc1Cl [Example 19, (S)-2-((5-chloro-2-((7-(pyrrolidin-1-yl)-6,7,8,9-tetrahydro-5H-benzo[7]annulen-2-yl)amino)pyrimidin-4-yl)amino)-5-fluoro-N-methylhenzamide] |  |  | 28 | 78
